Data set [1] concerns human breast carcinoma cell line MCF-7^wt. The experiment in a line: Cytotoxicity, MTT cell survival. Type of data set: cell-based. As to conditions: 72 hours. The protocol: (§1) Efficacy of the conjugate was studied on the following cell lines: human breast carcinoma cell line MCF-7^wt and resistant human breast carcinoma cell line MCF-7^AdrR; human ovary carcinoma cell line SKOV3 and resistant human ovary carcinoma cell line SKVLB; and murine melanoma cell line B16.
(§2) Study protocol was common for all test runs. The cells cultivated in plastic flasks (COSTAR) in the RPMI medium (SIGMA), which contained 10% of fetal bovine serum (SIGMA), 100 U/ml of penicillin and 100 μg/ml of streptomycin, in a wet environment of 5% CO2 at 37° C., were inoculated in 96-well plates (Costar), 10000 in each well, and studied drugs were then added at different concentrations. After that, the cells were incubated for 72 hours. Two-four hours prior to the end of the incubation period, 50 μl (1 mg/ml) of the MTT solution (3-[4,5-dimethylthiazole-2yl]-2,5-diphenyltetrazole bromide (SIGMA) in the culture medium were added in each well. After the development of coloration, the medium was removed, formazan crystals were dissolved in 150 μl of dimethyl sulfoxide, and the absorbance was measured by spectrophotometry at 540 nm. Survival rates of the cells exposed to free and conjugated DR were determined in percent relative to the survival rate of controls taken as 100%.

The subject of data set [2] is human ovary carcinoma cell line SKOV3. Description: Cytotoxicity, MTT cell survival. Type of data set: cell-based. The method, then:
as §1, §2

Data set [3] deals with murine melanoma cell line B16. The experiment in a line: Cytotoxicity, MTT cell survival. Type of data set: cell-based. The note with it: B16, 72 hours. The protocol:
as §1, §2

The subject of data set [4] is resistant human breast carcinoma cell line MCF-7^AdrR. Description: Cytotoxicity, MTT cell survival. The note with it: 72 hours. Type of data set: cell-based. The protocol:
as §1, §2

For data set [5], the system named is resistant human ovary carcinoma cell line SKVLB. Description: Cytotoxicity, MTT cell survival. Type of data set: cell-based. As to conditions: SKVLB^AdrR, 72 hours. The protocol:
as §1, §2

Data set [6] concerns subcutaneously implanted line B16 cancer cells. The experiment in a line: Murine implanted tumor model, intravenous administration. The note with it: mice, s.c. B16, i.v. 0.2 mg/kg of doxorubicin once every four days; for Increase in ADL, %: three injections, relative to controls. Type of data set: in vivo. The protocol:
The medicines were administered at a dose of 0.2 mg/kg of doxorubicin once every four days, three injections in total, starting from day 3 after the cancer implantation.

Data set [7] deals with line NIH 3T3 murine fibroblast cells. Description: Proliferative activity, 3H-thymidine incorporation. Type of data set: cell-based. The note with it: NIH 3T3 fibroblasts, 0.1-1000 ng/ml, compared with known polypeptide I (EGF fragment), FIG. 1. The protocol:
Proliferative activity of the polypeptide was tested on line NIH 3T3 murine fibroplat cells. The rate of DNA biosynthesis was judged from the amount of ^3H-timidine incorporated in the […] cell fraction. Line NIH 3T3 murine fibroblast cells were cultivated in plastic flasks in the RPM1 medium (SIGMA), which contained 10% of fetal bovine serum (SIGMA), 100 U/mb of penicillin and 100 μg/ml of streptomycin, in a wet environment of 5% CO2 at 37° C. Proliferation of synchronized line NIH 3T3 fibroblasts was induced by adding to the cellular suspension the proposed polypeptide at a different concentration (0.1-1000 ng/ml). The fibroblasts were cultivated in 96-well plates in the complete medium, 200-800 cells in each well containing 200 μl of the medium. ^3H-thymidine (1 μCi/well, […]) was added 2 hours prior to the end of the incubation period. Radioactivity was measured by a scintillation counter (RACKBETA, LKB) with the use of a toluene-based scintillation fluid ZhS-8. The rate of DNA biosynthesis was expressed as the stimulation index (stimulated-to-control cell ratio) calculated by the formula: I=N/No×100%, where I is the stimulation index, N is the number of EGF-stimulated cells, and No is the number of control cells. […]
In general terms: Incorporation of labelled thymidine or its analogues reports DNA synthesis.

Where [8] appears, read: Homo sapiens, Breast carcinoma cell.

pIC50: −log10 of the molar value. Peptide text beside a SMILES is read from it. * marks the point of attachment. X1 = COc1cccc2c1C(=O)c1c(O)c3c(c(O)c1C2=O)C[C@@](O)(C(=O)CO)C[C@@H]3O[C@H]1C[C@H](N=CCCCC=N[C@@H](CCSC)C(=O)*)[C@H](O)[C@H](C)O1

One may read the pIC50 as −log10 of the IC50, conventionally taken in molar units. Low readings indicate a large IC50, high ones a small IC50.

As for `COc1cccc2c1C(=O)c1c(O)c3c(c(O)c1C2=O)C[C@@](O)(C(=O)CO)C[C@@H]3O[C@H]1C[C@H](N)[C@H](O)[C@H](C)O1` [DR, doxorubicin], the pIC50 in data set [1] (setting [8]) was 7.23; in data set [2] (Homo sapiens, SK-OV-3, SKOV3, 72 hours) it was 6.68; in data set [3] (Mus musculus), 7.46; in data set [4] (setting [8]), 5.43; in data set [5] (Homo sapiens), 5.70. Further, in data set [6] (three injections from day 3), the “ADL (average duration of life)” value amounted to 23.6 ± 4.0 days. Besides, the “Increase in ADL, %” value in data set [6] is listed as −24.8%.
Consider `CC[C@H](C)[C@H](NC(=O)[C@H](Cc1ccc(O)cc1)NC(=O)[C@H](CCSC)N=CCCCC=N[C@H]1C[C@H](O[C@H]2C[C@](O)(C(=O)CO)Cc3c(O)c4c(c(O)c32)C(=O)c2c(OC)cccc2C4=O)O[C@@H](C)[C@H]1O)C(=O)N[C@@H](CCC(=O)O)C(=O)N[C@@H](C)C(=O)N[C@@H](CC(C)C)C(=O)N[C@@H](CC(=O)O)C(=O)N[C@@H](CO)C(=O)N[C@@H](Cc1ccc(O)cc1)C(=O)N[C@@H](C)C(=O)N[C@@H](CS)C(=O)O` [Polypeptide-DR conjugate] (X1-YIEALDSYAC-OH), for which the pIC50 in data set [1] was 8.89; in data set [2] (SKOV3, 72 hours) it was 7.66; in data set [3], 8.96; in data set [4], 6.82; in data set [5], 7.15. The “ADL (average duration of life)” value in data set [6] (three injections from day 3) is recorded as 46.6 ± 5.7 days. The “onset of tumors and their growth” value in data set [6] (three injections from day 3, compared with free DR) was “considerable delay in the onset of tumors and slowed their growth”. Besides, the “Increase in ADL, %” value in data set [6] (listed as Conjugate, 0.2 mg/kg) was determined as 48.5%; in data set [6] (listed as conjugate, 0.2 mg/kg) it was 46%.
“NH2-Met-Tyr-Ile-Glu-Ala-Leu-Asp-Ser-Tyr-Ala-Cys-COOH (H-MYIEALDSYAC-OH) [proposed polypeptide, synthetic polypeptide H2N-…-COOH similar to EGF fragment 21 to 31, Lys replaced with Ser]”: the “proliferative effect (incorporated 3H-thymidine, stimulation index)” value in data set [7] is recorded as “more pronounced dose-dependent proliferative effect”.

These data come from patent US7368431B2, “Polypeptide, the conjugate thereof with doxorubicine and a pharmaceutical composition based thereon” (Zakrytoe Aktsionernoe Obschestvo “Russkie Biotechnologll”, priority 2001, dated 2008).
